According to US9636409B2, “Enzyme and receptor modulation using covalent conjugates of alpha,alpha-disubstituted glycine esters” (GlaxoSmithKline Intellectual Property Development Limited, priority 2008, dated 2017):
Where two headings read alike, the source gives them in different places.

Legend:
[1] = biological target: T1, p38 MAP Kinase α (Homo sapiens, UniProt Q16539); experiment: p38 MAP Kinase enzyme assay; assay type: biochemical; settings: Table 1 (biology); compound as such, Ester for Example 1; read-out: Inhibition of P38 (IC50 nM)
T1 construct: purchased Upstate (Dundee UK)
Experimental: p38 MAP Kinase Enzyme Assay
The ability of compounds to inhibit p38 MAPα Kinase activity was measured in an assay performed by Upstate (Dundee UK). In a final reaction volume of 25 μL, p38 MAP Kinase α (5-10 mU) is incubated with 25 mM Tris pH 7.5, 0.02 mM EGTA, 0.33 mg/mL myelin basic protein, 10 mM MgAcetate and [γ-^33P-ATP](specific activity approx. 500 cpm/pmol, concentration as required). The reaction is initiated by the addition of the MgATP mix. After incubation for 40 minutes at room temperature, the reaction is stopped by the addition of 5 μL of a 3% phosphoric acid solution. 10 μL of the reaction is then spotted onto a P30 filtermat and washed three times for 5 minutes in 75 mM phosphoric acid and once in methanol prior to drying and scintillation counting.
Duplicate data points are generated from a 1/3 log dilution series of a stock solution in DMSO. Nine dilutions steps are made from a top concentration of […], and a ‘no compound’ blank is included. The standard radiometric filter-binding assay is performed at an ATP concentration at, or close to, the Km. Data from scintillation counts are collected and subjected to free-fit analysis by Prism software. From the curve generated, the concentration giving 50% inhibition is determined and reported.

[2] = test system: phosphorylation of MAPKAP-2 in U937 cells; experiment: p38 MAP Kinase cellular assay: inhibition of phosphorylation of MAPKAP2 in U937 cells; assay type: cell-based; settings: for IC50: Homo sapiens, U-937
Experimental: p38 MAP Kinase Cellular Assay: Inhibition of Phosphorylation of MAPKAP2
U937 or HUT78 cells were plated in RPMI 1640, and were incubated at 37° C., 5% CO2 for 18 hours. 10 mM stocks of compounds were diluted media/0.1% DMSO to give a log or semi-log dilution series. The wells for ‘no treatment’ and ‘anisomycin’ were treated with 0.1% DMSO only. The cells were incubated at 37° C., 5% CO2 for a further 4 hours. Anisomycin was added to all wells except ‘no treatment’ at a final concentration of 10 μM. The cells were incubated at 37° C., 5% CO2 for 30 minutes before harvest. Plates were stood on ice whilst harvesting, and all following steps were carried out at 4° C. The cells were pelleted at 1000 rpm for 10 minutes at 4° C., the media aspirated, and the pellet washed with cold PBS. The pellets were lysed in 120 μl of SDS lysis buffer (62.5 mM Tris, pH 6.8, 2% SDS, 10% glycerol, 50 mM DTT, with protease inhibitors and phosphatase inhibitors added according to the manufacturers' recommendations). After 30 minutes on ice, the samples were sonicated for 5 seconds before centrifugation at 13,000 rpm 4° C. for 10 minutes to remove cell debris. 10 μl of the resulting gel samples were loaded per lane on NOVEX 4-12% Bis-Tris MOPS gels. Membranes from western transfer of gels were blotted with anti-phospho MAPKAP2, anti-phospho HSP27 and anti GAPDH according to the manufacturers' Instructions. Signal was visualised using HRP-Hnked anti-rabbit or anti-mouse antibodies, ECL reagent and ECL film. IC50 values for the various compounds were visualised from the resulting photographic images, using both band-shift and signal intensity.

[3] = biological target: T2, recombinant hCE-1 (Homo sapiens, UniProt P23141); experiment: HCE-1 carboxylesterase assay; assay type: in vitro ADME; settings: result in words
T2 sequence (P23141 18-567): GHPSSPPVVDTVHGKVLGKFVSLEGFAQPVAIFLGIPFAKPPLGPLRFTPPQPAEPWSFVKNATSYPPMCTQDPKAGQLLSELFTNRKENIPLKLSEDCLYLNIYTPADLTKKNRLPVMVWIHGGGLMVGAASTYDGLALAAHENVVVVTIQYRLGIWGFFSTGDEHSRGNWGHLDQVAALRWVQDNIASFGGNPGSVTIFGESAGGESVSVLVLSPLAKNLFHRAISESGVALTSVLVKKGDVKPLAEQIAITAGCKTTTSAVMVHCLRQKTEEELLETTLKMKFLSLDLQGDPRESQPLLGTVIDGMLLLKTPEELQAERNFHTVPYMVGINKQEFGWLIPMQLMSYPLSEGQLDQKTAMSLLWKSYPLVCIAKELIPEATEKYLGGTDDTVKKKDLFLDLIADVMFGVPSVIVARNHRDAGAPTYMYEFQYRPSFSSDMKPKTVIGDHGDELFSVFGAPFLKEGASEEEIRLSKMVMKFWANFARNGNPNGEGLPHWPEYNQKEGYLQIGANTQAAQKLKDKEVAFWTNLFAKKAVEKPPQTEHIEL
Experimental: HCE-1 Carboxylesterase Assay
Hydrolysis of esters to the corresponding carboxylic acids by hCE-1 can be measured using the following procedure. At zero time, 100 μl of recombinant hCE-1 at a concentration of 6 μg/mL in phosphate assay buffer (K2PO4 100 mM, KCl 40 mM, pH 7.4) was added to an equal volume of assay buffer containing 5 μM ester substrate. After thorough mixing, triplicate samples were incubated for 0, 20 or 80 minutes at 37° C. At the appropriate time, hydrolysis was stopped by the addition of 600 μl of acetonitrile. For zero time samples, the acetonitrile was added prior to the enzyme. The samples were analysed for the ester and its corresponding carboxylic acid at room temperature by LCMS (Sciex API 3000, HP1100 binary pump, CTC PAL). Chromatography was based on a […] (75×2.1 mm) column and a mobile phase of 5-95% acetonitrile in water/0.1% formic add. Levels of the acid, the hydrolysis product, after 80 minutes are expressed in ng/mL.

[4] = test system: U937 cells; experiment: Cell accumulation assay in U937 cells; assay type: in vitro ADME; settings: U937 versus HUT 78; result in words
Experimental: Cells (8×10^4/mL) were incubated at 37° C. in culture medium containing 6 μM compound in a 5% (v/v) CO2-humidified atmosphere. Incubations were terminated after 6 h by centrifugation of 25 mL aliquots of the cell suspension at 300 g for 5 minutes at 4° C. 0.2 mL samples of the culture media supernatants were added to 4 volumes of acetonitrile (Sigma-Aldrich). After decanting the supernatant, the residual cell pellet (2×10^6 cells) was extracted into 1 mL of acetonitrile. Samples were then analysed for the ester and acid metabolite at room temperature by LC/MS/MS (Sciex API3000). Chromatography was based on a MeCN (75×21 mm) column with a 5-95% (v/v) acetonitrile, 0.1% (v/v) formic acid mobile phase. For the zero time samples, the cell suspension was chilled and centrifuged as soon as the ester had been added and then extracted into acetonitrile as described. Levels in cells are expressed as ng/mL.

T1 sequence (Q16539 whole entry): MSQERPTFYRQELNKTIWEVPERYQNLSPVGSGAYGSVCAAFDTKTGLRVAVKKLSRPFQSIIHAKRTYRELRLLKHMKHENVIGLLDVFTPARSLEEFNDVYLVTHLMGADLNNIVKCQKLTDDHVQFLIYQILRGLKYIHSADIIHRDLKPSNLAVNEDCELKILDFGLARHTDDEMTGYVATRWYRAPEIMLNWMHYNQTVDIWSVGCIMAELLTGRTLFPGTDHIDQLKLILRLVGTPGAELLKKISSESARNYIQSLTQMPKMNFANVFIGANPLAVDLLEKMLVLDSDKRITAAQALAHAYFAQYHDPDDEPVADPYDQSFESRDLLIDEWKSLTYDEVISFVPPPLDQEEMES

SMILES: CC(C)(NCCc1ccc(-n2c(N)c(C(=O)c3ccc(F)cc3F)ccc2=O)cc1)C(=O)OC1CCCC1 [Example 1]
- IC50 [1]: 50 nM
- IC50 ([2]; Table 1 (biology), U937 cells, read-out: Inhibition of phosphorylation of MAPKAP-2 in U937 cells (IC50)): 10 nM
- IC50 ([2]; Table 2, U937 monocyte cell line, read-out: Inhibition of phosphorylation of MAPKAP-2 in U937 cells (IC50, nM) (monocyte cell line)): 10 nM
- Ratio cell IC50s to enzyme IC50 ([2]; U937 MAPKAP-2 IC50 to P38 enzyme IC50): 0.2
- potency in monocytic versus non monocytic cell lines (MAPKAP-2 phosphorylation) ([2]; U937 versus HUT 78): 100 times
- potency in the p38 cellular assay compared with the parent compound ([2]; versus Compound I): significantly more potent than the parent compound
- hydrolysis by hCE-1 [3]: hydrolysed by hCE-1
- accumulation in monocytic versus non-monocytic cell line [4]: only accumulates in the monocytic cell line
